From ChEMBL document CHEMBL1144193, “Design, synthesis, and evaluation of novel aryl-tetrahydropyridine PPARalpha/gamma dual agonists” (Bioorg Med Chem Lett, 2008)
Values after ≈ are worked out from the molar mass of the structure shown.

What was measured:
[1] = target: T1, Peroxisome proliferator-activated receptor alpha (Homo sapiens, UniProt Q07869); assay: Agonist activity at human PPARalpha expressed in african green monkey CV-1 by co-transfected with GAL4 by dual-glo luciferase reporter gene assay; assay type: functional
T1 sequence (Q07869 whole entry): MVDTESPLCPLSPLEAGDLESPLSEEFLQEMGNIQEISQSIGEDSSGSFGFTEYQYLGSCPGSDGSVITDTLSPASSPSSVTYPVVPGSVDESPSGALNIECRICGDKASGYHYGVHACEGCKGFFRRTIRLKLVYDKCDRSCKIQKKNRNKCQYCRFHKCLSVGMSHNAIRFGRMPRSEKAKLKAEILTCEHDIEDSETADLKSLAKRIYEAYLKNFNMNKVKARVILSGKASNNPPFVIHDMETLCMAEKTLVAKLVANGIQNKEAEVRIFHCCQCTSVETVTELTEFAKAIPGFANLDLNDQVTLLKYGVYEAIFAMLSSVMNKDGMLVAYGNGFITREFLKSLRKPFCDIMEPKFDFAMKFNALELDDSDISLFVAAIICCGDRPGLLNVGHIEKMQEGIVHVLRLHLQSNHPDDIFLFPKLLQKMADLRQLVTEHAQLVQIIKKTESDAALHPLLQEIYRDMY

[2] = target: T2, Peroxisome proliferator-activated receptor gamma (Homo sapiens, UniProt P37231)
T2 sequence (P37231 whole entry): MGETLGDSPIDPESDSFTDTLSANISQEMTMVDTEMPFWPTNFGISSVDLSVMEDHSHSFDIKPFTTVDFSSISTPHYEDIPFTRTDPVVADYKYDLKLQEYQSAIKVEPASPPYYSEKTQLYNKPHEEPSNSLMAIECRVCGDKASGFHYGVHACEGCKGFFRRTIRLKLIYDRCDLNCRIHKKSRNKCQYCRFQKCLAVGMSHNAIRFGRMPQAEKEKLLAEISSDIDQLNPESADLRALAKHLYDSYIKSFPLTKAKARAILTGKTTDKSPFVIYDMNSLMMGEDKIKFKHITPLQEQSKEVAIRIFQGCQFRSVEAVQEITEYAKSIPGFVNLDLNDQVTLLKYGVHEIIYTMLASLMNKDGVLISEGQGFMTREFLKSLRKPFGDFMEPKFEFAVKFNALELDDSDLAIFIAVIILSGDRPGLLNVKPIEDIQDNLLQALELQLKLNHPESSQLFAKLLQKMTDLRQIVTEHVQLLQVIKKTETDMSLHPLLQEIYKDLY
Description: Agonist activity at human PPARgamma expressed in african green monkey CV-1 co-transfected with GAL4 by dual-glo luciferase reporter gene assay

[3] = system: Mus musculus; assay: Antihyperglycemic activity in db/db mouse assessed as increase in body weight at 3 mg/kg, po once daily after 28 days
[4] = AUC (0 to 24 hrs) in Sprague-Dawley rat at 3 mg/kg, iv; assay type: ADME, organism-based; parameters: time < 24 hr, dose 3 mg/kg, route intravenous; conditions: plasma
[5] = Volume of distribution at steady state in Sprague-Dawley rat at 3 mg/kg, iv; conditions: in vivo
[6] = AUC (0 to 24 hrs) in Sprague-Dawley rat at 3 mg/kg, po; assay type: ADME, organism-based; parameters: time < 24 hr, dose 3 mg/kg, route oral; conditions: plasma
[7] = Solubility at pH 6.8; assay type: physicochemical; conditions: buffer
[8] = system: Mus musculus; assay: Antihyperglycemic activity in po dosed db/db mouse assessed as reduction in glucose level after 28 days; assay type: functional; conditions: 672 h
[9] = Tmax in Sprague-Dawley rat at 3 mg/kg, po; assay type: ADME, organism-based; parameters: dose 3 mg/kg, route oral; conditions: in vivo
[10] = system: Mus musculus; assay: Antihyperglycemic activity in db/db mouse assessed as reduction in plasma glucose level at 0.3 mg/kg, po once daily after 28 days relative to non-fasting control; assay type: functional; parameters: scale not given: the % may be the effect or the level left
[11] = system: Mus musculus; assay: Antihyperglycemic activity in db/db mouse assessed as increase in body weight at 1 mg/kg, po once daily after 28 days; assay type: functional
[12] = system: Mus musculus; assay: Antihyperglycemic activity in db/db mouse assessed as reduction in plasma glucose level at 0.1 mg/kg, po once daily after 28 days relative to non-fasting control; assay type: functional; parameters: scale not given: the % may be the effect or the level left
[13] = system: Mus musculus; assay: Antihyperglycemic activity in db/db mouse assessed as increase in body weight at 0.3 mg/kg, po once daily after 28 days; assay type: functional
[14] = system: Mus musculus; assay: Antihyperglycemic activity in db/db mouse assessed as reduction in plasma glucose level at 1 mg/kg, po once daily after 28 days relative to non-fasting control; assay type: functional; parameters: scale not given: the % may be the effect or the level left
[15] = Clearance in Sprague-Dawley rat at 3 mg/kg, iv; assay type: ADME, organism-based; parameters: dose 3 mg/kg, route intravenous; conditions: in vivo
[16] = system: Mus musculus; assay: Antihyperglycemic activity in db/db mouse assessed as increase in body weight at 0.1 mg/kg, po once daily after 28 days; assay type: functional
[17] = Oral bioavailability in Sprague-Dawley rat at 3 mg/kg; assay type: ADME, organism-based; conditions: in vivo
[18] = Cmax in Sprague-Dawley rat at 3 mg/kg, po; assay type: ADME, organism-based; parameters: dose 3 mg/kg, route oral; conditions: in vivo
[19] = system: Mus musculus; assay: Antihyperglycemic activity in db/db mouse assessed as reduction in plasma glucose level at 3 mg/kg, po once daily after 28 days relative to non-fasting control; parameters: scale not given: the % may be the effect or the level left
[20] = Half life in Sprague-Dawley rat at 3 mg/kg, iv; assay type: ADME, organism-based; parameters: dose 3 mg/kg, route intravenous; conditions: in vivo
[21] = system: Mus musculus; assay: Antihyperglycemic activity in db/db mouse assessed as increase in body weight at 0.03 mg/kg, po once daily after 28 days; assay type: functional
[22] = system: Mus musculus; assay: Antihyperglycemic activity in db/db mouse assessed as reduction in plasma glucose level at 0.03 mg/kg, po once daily after 28 days relative to non-fasting control; assay type: functional; parameters: scale not given: the % may be the effect or the level left

CCO[C@@H](Cc1ccc(OCCN2CC=C(c3ccc(Cl)c(Cl)c3)CC2)cc1)C(=O)O
EC50 [1]: 0.615 µM
EC50 [2]: 0.862 µM

CCOC(Cc1ccc(OCCN2CC=C(c3cccc(C(F)(F)F)c3)CC2)cc1)C(=O)O (stereo not drawn)
EC50 [1]: 3.12 µM
EC50 [2]: 2.23 µM

CCOC(Cc1ccc(OCCN2CC=C(c3ccc(OC)cc3)CC2)cc1)C(=O)O (stereo not drawn)
EC50 [1]: 11.3 µM
EC50 [2]: 0.396 µM

CCOC(Cc1ccc(OCCN2CC=C(c3ccccc3Cl)CC2)cc1)C(=O)O (stereo not drawn)
EC50 [1]: 7.72 µM
EC50 [2]: 5.83 µM

CCOC(Cc1ccc(OCCN2CC=C(c3cccs3)CC2)cc1)C(=O)O (stereo not drawn)
EC50 [1]: 8.58 µM
EC50 [2]: 3.3 µM

CC(C)(Oc1ccc(OCCN2CC=C(c3ccc(Cl)cc3)CC2)cc1)C(=O)O
EC50 [1]: 0.868 µM
EC50 [2]: 22.8 µM

CCC(Cc1ccc(OCCN2CC=C(c3ccc(Cl)cc3)CC2)cc1)C(=O)O (stereo not drawn)
EC50 [1]: 3.86 µM
EC50 [2]: 5.29 µM

CCCc1ccc(C2=CCN(CCOc3ccc(CC(OCC)C(=O)O)cc3)CC2)cc1 (stereo not drawn)
EC50 [1]: 2.08 µM
EC50 [2]: 0.174 µM

CC(C)(Oc1cccc(OCCN2CC=C(c3ccc(Cl)cc3)CC2)c1)C(=O)O
EC50 [1]: 0.331 µM
EC50 [2]: 18.8 µM

CCOC(Cc1ccc(OCCN2CC=C(c3ccc(Cl)cc3)CC2)cc1)C(=O)O (stereo not drawn)
EC50 [1]: 7.07 µM
EC50 [2]: 2.06 µM

COc1ccc(OC(=O)N(CC(=O)O)Cc2ccc(OCCc3nc(-c4ccccc4)oc3C)cc2)cc1 [MURAGLITAZAR]
Activity [3]: 16.1 g
EC50 [1]: 4.11 µM
AUC(0-t) at 24 h [4]: 101 µM·h
Vd [5]: 0.57 L/kg
AUC(0-t) at 24 h [6]: 98.8 µM·h
solubility [7]: 41 µg/mL (≈ 79.4 µM)
ED30 [8]: 0.411 mg/kg
Tmax [9]: 34.8 min
Activity [10]: 11%
Activity [11]: 14.5 g
Activity [12]: 4%
Activity [13]: 12.7 g
Activity [14]: 54%
clearance [15]: 0.73 mL/min/kg
Activity [16]: 10.5 g
bioavailability [17]: 96.2%
Cmax [18]: 25.8 µM
Activity [19]: 78%
half-life [20]: 840 min

CCOC(Cc1ccc(OCCN2CC=C(c3ccccc3OC)CC2)cc1)C(=O)O (stereo not drawn)
EC50 [1]: 18.1 µM
EC50 [2]: 3.93 µM

CN(CCOc1ccc(CC2SC(=O)NC2=O)cc1)c1ccccn1 (stereo not drawn) [ROSIGLITAZONE]
Activity [3]: 13.9 g
AUC(0-t) at 24 h [4]: 53.7 µM·h
AUC(0-t) at 24 h [6]: 94.2 µM·h
solubility [7]: 14 µg/mL (≈ 39.2 µM)
ED30 [8]: 0.21 mg/kg
Tmax [9]: 15 min
Activity [10]: 37%
Activity [11]: 12.5 g
Activity [12]: 17%
Activity [13]: 11.1 g
Activity [14]: 56%
clearance [15]: 2.99 mL/min/kg
Activity [16]: 10.5 g
bioavailability [17]: > 100%
Cmax [18]: 44.3 µM
Activity [19]: 68%
half-life [20]: 63 min

CCO[C@@H](Cc1ccc(OCCN2CC=C(c3ccc(Cl)cc3)CC2)cc1)C(=O)O
EC50 [1]: 1.73 µM
EC50 [2]: 0.639 µM
AUC(0-t) at 24 h [4]: 272 µM·h
Vd [5]: 0.44 L/kg
AUC(0-t) at 24 h [6]: 270 µM·h
solubility [7]: 3260 µg/mL (≈ 7590 µM)
ED30 [8]: 0.067 mg/kg
Tmax [9]: 30 min
Activity [10]: 63%
Activity [21]: 11.2 g
Activity [11]: 13.7 g
Activity [12]: 37%
Activity [13]: 12.6 g
Activity [14]: 77%
clearance [15]: 0.23 mL/min/kg
Activity [16]: 12.4 g
bioavailability [17]: > 100%
Cmax [18]: 15.9 µM
half-life [20]: 1380 min
Activity [22]: 14%

CCOC(Cc1ccc(OCCN2CC=C(c3cnccn3)CC2)cc1)C(=O)O (stereo not drawn)
EC50 [1]: 3.67 µM
EC50 [2]: 12.6 µM

CCOC(Cc1ccc(OCCCN2CC=C(c3ccc(Cl)cc3)CC2)cc1)C(=O)O (stereo not drawn)
EC50 [1]: 9.8 µM
EC50 [2]: 2.32 µM

CCOC(Cc1ccc(OCCN2CC=C(c3ccc(CC)cc3)CC2)cc1)C(=O)O (stereo not drawn)
EC50 [1]: 7.58 µM
EC50 [2]: 0.689 µM

CCOC(Cc1ccc(OCCN2CC=C(c3cccc(OC)c3)CC2)cc1)C(=O)O (stereo not drawn)
EC50 [1]: 17.3 µM
EC50 [2]: 2.38 µM

CCOC(Cc1ccc(OCCN2CC=C(c3cccc(Cl)c3Cl)CC2)cc1)C(=O)O (stereo not drawn)
EC50 [1]: 0.064 µM
EC50 [2]: 0.661 µM

CCOC(Cc1ccc(OCCCN2CC=C(c3ccc(C(F)(F)F)cc3)CC2)cc1)C(=O)O (stereo not drawn)
EC50 [1]: 9.79 µM
EC50 [2]: 0.504 µM

CCOC(Cc1ccc(OCCN2CC=C(c3ccc(Cl)c(Cl)c3)CC2)cc1)C(=O)O (stereo not drawn)
EC50 [1]: 1.15 µM
EC50 [2]: 0.67 µM

CCOC(Cc1ccc(OCCN2CC=C(c3cccc(Cl)c3)CC2)cc1)C(=O)O (stereo not drawn)
EC50 [1]: 3.24 µM
EC50 [2]: 1.67 µM

CCOC(Cc1ccc(OCCN2CC=C(c3cc(Cl)cc(Cl)c3)CC2)cc1)C(=O)O (stereo not drawn)
EC50 [1]: 2.99 µM
EC50 [2]: 1.42 µM

CCOC(Cc1ccc(OCCN2CC=C(c3ccccc3)CC2)cc1)C(=O)O (stereo not drawn)
EC50 [1]: 5.98 µM
EC50 [2]: 2.15 µM

CCOC(Cc1ccc(OCCN2CC=C(c3cc(Cl)ccc3Cl)CC2)cc1)C(=O)O (stereo not drawn)
EC50 [1]: 1.12 µM
EC50 [2]: 1.44 µM

CCOC(Cc1ccc(OCCN2CC=C(c3ccccn3)CC2)cc1)C(=O)O (stereo not drawn)
EC50 [1]: 10.2 µM
EC50 [2]: 2.3 µM

CCOC(Cc1ccc(OCCN2CC=C(c3ccccc3C(F)(F)F)CC2)cc1)C(=O)O (stereo not drawn)
EC50 [1]: 0.542 µM
EC50 [2]: 7.56 µM

CC(Cc1ccc(OCCN2CC=C(c3ccc(Cl)cc3)CC2)cc1)(Oc1ccccc1)C(=O)O (stereo not drawn)
EC50 [1]: 25.5 µM
EC50 [2]: 4.88 µM

CCOC(Cc1ccc(OCCN2CC=C(c3ccc(Cl)cc3Cl)CC2)cc1)C(=O)O (stereo not drawn)
EC50 [1]: 1.12 µM
EC50 [2]: 0.706 µM

CCOC(Cc1ccc(OCCCN2CC=C(c3ccc(Cl)c(Cl)c3)CC2)cc1)C(=O)O (stereo not drawn)
EC50 [1]: 1.7 µM
EC50 [2]: 0.728 µM

CCOC(Cc1ccc(OCCN2CC=C(c3ccc(C(F)(F)F)cc3)CC2)cc1)C(=O)O (stereo not drawn)
EC50 [1]: 3.4 µM
EC50 [2]: 1.89 µM

CCOC(Cc1ccc(OCCN2CC=C(c3ccc(F)cc3)CC2)cc1)C(=O)O (stereo not drawn)
EC50 [1]: 2.23 µM
EC50 [2]: 3.72 µM

CCO[C@@H](Cc1ccc(OCCc2ccc(OS(C)(=O)=O)cc2)cc1)C(=O)O [TESAGLITAZAR]
EC50 [1]: 3.12 µM
EC50 [2]: 0.704 µM

CCOC(Cc1ccc(OCCN2CC=C(c3ncccn3)CC2)cc1)C(=O)O (stereo not drawn)
EC50 [1]: 7.67 µM
EC50 [2]: 4.6 µM
